# Assay results from patent US10670605B2, “Cysteine reactive probes and uses thereof” (The Scripps Research Institute, priority 2015, dated 2020).
# Columns and labels:
# Assay in all cases: Competitive isoTOP-ABPP in situ (fragment-treated cells)
# Assay type in all cases: cell-based
# Conditions in all cases: 200 μM, insitu
# [1] = target: T1, cysteines in MDA-MB-231 and Ramos cells (Homo sapiens, UniProt P30101)
# T1 sequence (P30101 25-505): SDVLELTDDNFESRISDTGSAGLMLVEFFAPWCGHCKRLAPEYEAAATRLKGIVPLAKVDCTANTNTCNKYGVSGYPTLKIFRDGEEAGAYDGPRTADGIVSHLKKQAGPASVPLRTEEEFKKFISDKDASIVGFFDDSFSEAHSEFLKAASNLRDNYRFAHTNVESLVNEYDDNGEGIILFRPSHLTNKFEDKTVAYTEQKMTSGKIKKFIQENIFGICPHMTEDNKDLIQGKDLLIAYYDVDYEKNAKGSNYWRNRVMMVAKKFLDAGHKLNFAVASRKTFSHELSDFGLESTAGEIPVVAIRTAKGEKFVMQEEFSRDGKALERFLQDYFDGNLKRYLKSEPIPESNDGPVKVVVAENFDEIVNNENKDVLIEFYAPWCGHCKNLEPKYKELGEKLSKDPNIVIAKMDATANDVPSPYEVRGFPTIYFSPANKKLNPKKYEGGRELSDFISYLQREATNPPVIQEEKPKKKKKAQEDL
# [2] = target: T2, cysteines in MDA-MB-231 and Ramos cells (Homo sapiens, UniProt Q86SX6)
# T2 sequence (Q86SX6 32-157): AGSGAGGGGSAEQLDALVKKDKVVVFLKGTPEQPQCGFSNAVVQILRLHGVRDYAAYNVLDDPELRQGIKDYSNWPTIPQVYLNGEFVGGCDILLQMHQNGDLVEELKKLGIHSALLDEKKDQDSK
# [3] = target: T3, cysteines in MDA-MB-231 and Ramos cells (Homo sapiens, UniProt P04183)
# T3 sequence (P04183 1-234): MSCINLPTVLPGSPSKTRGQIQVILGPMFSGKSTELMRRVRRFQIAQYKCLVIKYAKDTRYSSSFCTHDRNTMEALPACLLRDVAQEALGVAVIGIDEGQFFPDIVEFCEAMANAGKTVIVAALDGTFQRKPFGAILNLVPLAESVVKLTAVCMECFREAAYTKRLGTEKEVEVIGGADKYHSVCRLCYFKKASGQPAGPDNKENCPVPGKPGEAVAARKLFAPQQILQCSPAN
# [4] = target: T4, cysteines in MDA-MB-231 and Ramos cells (Homo sapiens, UniProt O95571)
# T4 sequence (O95571 8-254): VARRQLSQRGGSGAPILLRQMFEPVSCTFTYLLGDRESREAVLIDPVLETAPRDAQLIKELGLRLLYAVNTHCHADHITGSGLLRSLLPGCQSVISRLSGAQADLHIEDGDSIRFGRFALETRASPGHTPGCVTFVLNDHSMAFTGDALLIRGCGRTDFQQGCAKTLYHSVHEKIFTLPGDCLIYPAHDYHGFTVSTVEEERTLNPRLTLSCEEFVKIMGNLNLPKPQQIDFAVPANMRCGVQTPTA
# [5] = target: T5, cysteines in MDA-MB-231 and Ramos cells (Homo sapiens, UniProt P42224)
# T5 sequence (P42224 1-750): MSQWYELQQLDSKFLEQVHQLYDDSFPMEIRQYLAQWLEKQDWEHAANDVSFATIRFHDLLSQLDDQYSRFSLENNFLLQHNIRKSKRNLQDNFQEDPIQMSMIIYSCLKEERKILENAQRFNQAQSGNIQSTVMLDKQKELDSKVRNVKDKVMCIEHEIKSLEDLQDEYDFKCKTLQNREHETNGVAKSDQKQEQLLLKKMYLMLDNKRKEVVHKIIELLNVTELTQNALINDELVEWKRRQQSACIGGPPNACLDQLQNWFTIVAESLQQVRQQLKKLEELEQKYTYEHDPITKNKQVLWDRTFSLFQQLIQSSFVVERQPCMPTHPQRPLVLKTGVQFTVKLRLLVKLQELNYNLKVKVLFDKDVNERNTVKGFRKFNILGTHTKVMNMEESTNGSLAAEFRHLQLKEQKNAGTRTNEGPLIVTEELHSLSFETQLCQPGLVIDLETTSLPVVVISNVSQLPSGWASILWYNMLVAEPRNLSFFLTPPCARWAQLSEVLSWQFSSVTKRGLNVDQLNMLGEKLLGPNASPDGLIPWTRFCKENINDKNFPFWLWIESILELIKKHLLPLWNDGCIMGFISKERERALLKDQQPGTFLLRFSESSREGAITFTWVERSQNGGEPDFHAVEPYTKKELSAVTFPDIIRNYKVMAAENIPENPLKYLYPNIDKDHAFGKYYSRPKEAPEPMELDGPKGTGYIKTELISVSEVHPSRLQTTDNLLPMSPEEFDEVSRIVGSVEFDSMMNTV
# [6] = target: T6, cysteines in MDA-MB-231 and Ramos cells (Homo sapiens, UniProt Q9HAV7)
# T6 sequence (Q9HAV7 28-217): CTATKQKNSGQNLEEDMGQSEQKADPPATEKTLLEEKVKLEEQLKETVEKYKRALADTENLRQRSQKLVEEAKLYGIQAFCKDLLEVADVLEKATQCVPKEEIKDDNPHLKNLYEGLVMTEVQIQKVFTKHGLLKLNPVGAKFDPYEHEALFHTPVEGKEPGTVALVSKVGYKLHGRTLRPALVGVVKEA
# [7] = target: T7, cysteines in MDA-MB-231 and Ramos cells (Homo sapiens, UniProt P52597)
# T7 sequence (P52597 1-415): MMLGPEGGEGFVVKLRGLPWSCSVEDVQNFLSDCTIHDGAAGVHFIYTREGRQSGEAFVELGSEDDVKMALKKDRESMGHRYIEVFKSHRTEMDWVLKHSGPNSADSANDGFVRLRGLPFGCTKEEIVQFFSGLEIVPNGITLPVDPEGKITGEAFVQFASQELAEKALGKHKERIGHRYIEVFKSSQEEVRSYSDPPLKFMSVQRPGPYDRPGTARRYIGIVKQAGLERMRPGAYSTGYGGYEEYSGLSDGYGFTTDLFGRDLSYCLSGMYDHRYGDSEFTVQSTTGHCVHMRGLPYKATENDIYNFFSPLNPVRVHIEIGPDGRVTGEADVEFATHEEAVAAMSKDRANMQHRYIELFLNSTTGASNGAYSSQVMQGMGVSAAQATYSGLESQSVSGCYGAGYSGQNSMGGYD
# [8] = target: T8, cysteines in MDA-MB-231 and Ramos cells (Homo sapiens, UniProt Q99757)
# T8 sequence (Q99757 60-166): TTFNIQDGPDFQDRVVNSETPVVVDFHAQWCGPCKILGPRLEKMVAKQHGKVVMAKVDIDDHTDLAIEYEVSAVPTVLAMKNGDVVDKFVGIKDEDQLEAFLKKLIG
isoTOP-ABPP ratio P30101_C57 ([1]; ramos),isoTOP-ABPP ratio P30101_C406 ([1]; ramos),isoTOP-ABPP ratio Q86SX6_C67 ([2]; ramos),isoTOP-ABPP ratio P04183_C66 ([3]; ramos),isoTOP-ABPP ratio P04183_C230 ([3]; ramos),isoTOP-ABPP ratio O95571_C170 ([4]; ramos),isoTOP-ABPP ratio P42224_C492 ([5]; ramos),isoTOP-ABPP ratio Q9HAV7_C124 ([6]; ramos),isoTOP-ABPP ratio P52597_C267 ([7]; ramos),isoTOP-ABPP ratio Q99757_C90 ([8]; ramos),isoTOP-ABPP ratio P30101_C57 [1]; 231,isoTOP-ABPP ratio P30101_C406 [1]; 231,isoTOP-ABPP ratio Q86SX6_C67 [2]; 231,isoTOP-ABPP ratio P04183_C66 [3]; 231,isoTOP-ABPP ratio P04183_C230 [3]; 231,isoTOP-ABPP ratio O95571_C170 [4]; 231,isoTOP-ABPP ratio P42224_C492 [5]; 231,isoTOP-ABPP ratio Q9HAV7_C124 [6]; 231,isoTOP-ABPP ratio P52597_C267 [7]; 231,isoTOP-ABPP ratio Q99757_C90 [8]; 231,Structure (SMILES)
1.2,1.5,1.2,1.6,1.2,1.5,3.8,1.0,1.2,1.6,,,,,,,,,,,O=C(CCl)N1CCN(CC(=O)N2CCOCC2)CC1 [compound 29]
,,,,,,,,,,1.3,1.0,1.0,0.4,0.6,1.1,0.6,0.6,0.8,0.5,Cc1ccc(C=C(C#N)C(=O)NCCN2CCOCC2)cc1 [compound 41]
,,,,,,,,,,2.6,2.6,9.1,,2.0,3.1,20.0,2.1,4.1,6.7,CC1CCc2ccccc2N1C(=O)CCl (centres unmarked) [compound 45]
